Data taken from publication PMC9856093, “CIGB-300 Anticancer Peptide Differentially Interacts with CK2 Subunits and Regulates Specific Signaling Mediators in a Highly Sensitive Large Cell Lung Carcinoma Cell Model” (Biomedicines, 2022).
Positions of bridges follow the written chain, without caps; N, C: chain ends. Non-standard residues stand in square brackets, D forms with d. Residues, ends and D or L forms follow the SMILES beside them. βAla = NCCC(=O)O

Legend:
PTEN = biological target: T1, PTEN (Homo sapiens, UniProt P60484); experiment: In vivo pull-down plus Western blot; format: binding; details: biotin-tagged peptide 30 µM, 0.5 h, NCI-H460 cells
T1 construct: endogenous in cells; host or cells: NCI-H460
T1 sequence (P60484 whole entry): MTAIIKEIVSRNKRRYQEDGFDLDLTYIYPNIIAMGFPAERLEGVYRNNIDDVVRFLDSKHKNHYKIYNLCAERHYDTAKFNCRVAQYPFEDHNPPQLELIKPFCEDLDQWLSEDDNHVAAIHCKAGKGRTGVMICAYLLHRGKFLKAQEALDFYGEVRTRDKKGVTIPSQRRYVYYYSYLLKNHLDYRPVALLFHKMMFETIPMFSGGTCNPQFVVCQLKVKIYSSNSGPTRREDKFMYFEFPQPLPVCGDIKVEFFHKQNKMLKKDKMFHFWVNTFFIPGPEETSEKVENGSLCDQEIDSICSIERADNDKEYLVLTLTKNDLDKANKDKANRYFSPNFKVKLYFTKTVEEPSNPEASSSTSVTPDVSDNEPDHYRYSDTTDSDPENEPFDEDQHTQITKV
Procedure: (§1) For in vivo pull-down assays, N-terminal biotin tagged CIGB-300 (CIGB-300-B) was added to NCI-H460 cells at a final concentration of 30 µM and incubated for 30 min at 37 °C and 5% CO2. Subsequently, cells were collected, washed, and lysed in PBS solution (Sigma, St. Louis, MO, USA) containing 1 mM DTT (Sigma, St. Louis, MO, USA), Triton X-100 (1%), and complete protease inhibitor (Roche, Basel, Switzerland). Cellular lysates were cleared by centrifugation and added to 30 μL of pre-equilibrated streptavidin–sepharose matrix (GE Healthcare, Chicago, IL, USA). In the case of RNA pre-treatment, another cell extract was incubated with RNAase A (10 mg/mL) (Promega, Madison, WI, USA) for 20 min at 37 °C. Following 1 h at 4 °C, the matrix was collected by centrifugation and extensively washed with cold PBS 1 mM and DTT. Proteins bound to streptavidin–sepharose matrix were digested with trypsin (Promega, Madison, WI, USA) during 16 h or eluted for Western blot analysis. In parallel, untreated cells were subjected to the same experimental procedure to identify those proteins non-specifically bound to streptavidin–sepharose matrix. Proteins were resolved in 12% SDS-PAGE and then transferred to a nitrocellulose membrane. For Western blot analysis, a mouse monoclonal antibody against CK2α (Abcam, Cambridge, UK), a rabbit polyclonal antibody against CK2α′ (Abcam, Cambridge, UK), a mouse monoclonal antibody against CK2β (Sigma, St. Louis, MO, USA), and monoclonal rabbit antibodies against PTEN and RPS6 (Cell Signaling, Danvers, MA, USA), respectively, were used as primary antibodies. Detection was performed with peroxidase-conjugated anti-mouse IgG 1:5000 (Sigma, St. Louis, MO, USA) and anti-rabbit IgG 1:5000 (Sigma, St. Louis, MO, USA). In parallel, untreated cells were subjected to the same experimental procedure to identify those proteins non-specifically bound to streptavidin–sepharose matrix. […]

CK2α = biological target: T2, CK2α (Homo sapiens, UniProt P68400); experiment: In vivo pull-down plus Western blot; format: binding; details: biotin-tagged peptide 30 µM, 0.5 h, NCI-H460 cells
T2 construct: endogenous in cells; host or cells: NCI-H460
T2 sequence (P68400 whole entry): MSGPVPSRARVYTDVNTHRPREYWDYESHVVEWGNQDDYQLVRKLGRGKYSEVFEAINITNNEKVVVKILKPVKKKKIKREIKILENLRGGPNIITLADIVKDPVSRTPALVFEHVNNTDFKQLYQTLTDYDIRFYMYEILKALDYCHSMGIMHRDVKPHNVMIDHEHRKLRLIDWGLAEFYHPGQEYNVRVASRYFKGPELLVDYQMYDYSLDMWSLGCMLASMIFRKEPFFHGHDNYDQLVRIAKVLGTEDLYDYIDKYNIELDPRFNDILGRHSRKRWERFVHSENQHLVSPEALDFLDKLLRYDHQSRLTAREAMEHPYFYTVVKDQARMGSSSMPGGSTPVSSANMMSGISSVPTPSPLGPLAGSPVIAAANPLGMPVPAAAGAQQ
Procedure: as §1

CK2α′ = biological target: T3, CK2α′ (Homo sapiens, UniProt P19784); experiment: In vivo pull-down plus Western blot; format: binding; details: biotin-tagged peptide 30 µM, 0.5 h, NCI-H460 cells
T3 construct: endogenous in cells; host or cells: NCI-H460
T3 sequence (P19784 whole entry): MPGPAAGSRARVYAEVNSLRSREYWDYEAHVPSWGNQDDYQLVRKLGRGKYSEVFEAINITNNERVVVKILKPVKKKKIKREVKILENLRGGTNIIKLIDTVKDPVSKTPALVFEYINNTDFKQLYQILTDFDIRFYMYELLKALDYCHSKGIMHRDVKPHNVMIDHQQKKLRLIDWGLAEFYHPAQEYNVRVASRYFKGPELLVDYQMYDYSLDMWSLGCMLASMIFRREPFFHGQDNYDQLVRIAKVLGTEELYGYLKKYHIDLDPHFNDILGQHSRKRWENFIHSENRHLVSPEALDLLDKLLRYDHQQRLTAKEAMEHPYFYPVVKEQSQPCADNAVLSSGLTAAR
Procedure: as §1

c-Myc = experiment: Western blot, cancer molecular markers; format: cell-based, human
Procedure: (§2) NCI-H460 cells were plated on six-well cell culture plates at 1 × 10^6 cells per well and incubated overnight at 37 °C and 5% CO2. […] After incubation, the culture medium was withdrawn, and cells were washed with PBS and lysed in RIPA buffer containing protease/phosphatase inhibitor (Thermo Fisher Scientific, Waltham, MA, USA). Western blot detection was carried out as described (4.6). Primary antibodies against phospho-PTEN (S380) and total PTEN (Cell Signaling Technology, Danvers, MA, USA), phospho-RPS6 (S235/236) and total RPS6 (Cell Signaling Technology, Danvers, MA, USA), Ezrin (Abcam, Cambridge, UK), c-Myc (CIGB, SP, Cuba), and Fibrillarin (Abcam, Cambridge, UK) were used. Primary antibodies against CK2 subunits were used as previously described. All experiments were performed at least two times.

p-RPS6 (S235/236) = experiment: Western blot, CK2 downstream signaling; format: cell-based, human; details: NCI-H460, 30 µM, 48 h
Procedure: as §2

CK2β = experiment: In vivo pull-down plus Western blot; format: binding, human; details: biotin-tagged peptide 30 µM, 0.5 h, NCI-H460 cells
Procedure: as §1, with “membrane.” for “membrane. For Western blot analysis, a mouse monoclonal antibody against CK2α (Abcam, Cambridge, UK), a rabbit polyclonal antibody against CK2α′ (Abcam, Cambridge, UK), a mouse monoclonal antibody against CK2β (Sigma, St. Louis, MO, USA), and monoclonal rabbit antibodies against PTEN and RPS6 (Cell Signaling, Danvers, MA, USA), respectively, were used as primary antibodies. Detection was performed with peroxidase-conjugated anti-mouse IgG 1:5000 (Sigma, St. Louis, MO, USA) and anti-rabbit IgG 1:5000 (Sigma, St. Louis, MO, USA). In parallel, untreated cells were subjected to the same experimental procedure to identify those proteins non-specifically bound to streptavidin–sepharose matrix.”

RPS6 = experiment: In vivo pull-down plus Western blot; format: binding, human; details: biotin-tagged peptide 30 µM, 0.5 h, NCI-H460 cells; RNAase free assay
Procedure: as §1, with “membrane.” for “membrane. For Western blot analysis, a mouse monoclonal antibody against CK2α (Abcam, Cambridge, UK), a rabbit polyclonal antibody against CK2α′ (Abcam, Cambridge, UK), a mouse monoclonal antibody against CK2β (Sigma, St. Louis, MO, USA), and monoclonal rabbit antibodies against PTEN and RPS6 (Cell Signaling, Danvers, MA, USA), respectively, were used as primary antibodies. Detection was performed with peroxidase-conjugated anti-mouse IgG 1:5000 (Sigma, St. Louis, MO, USA) and anti-rabbit IgG 1:5000 (Sigma, St. Louis, MO, USA). In parallel, untreated cells were subjected to the same experimental procedure to identify those proteins non-specifically bound to streptavidin–sepharose matrix.”

NCI-H460 cells [1] = experiment: Cell cycle analysis, PI staining, flow cytometry; format: cell-based, human
Procedure: For cell cycle analysis, NCI-H460 cells were incubated with 30 µM CIGB-300 or with 5 µM CX-4945, respectively, during 6 h, 24 h and 48 h. Following treatment with the peptide, cells were collected by centrifugation, washed with PBS, and fixed at 4 °C for 2 h with ice-cold 70% ethanol. After fixation, cells were treated with DNase-free RNase A (Sigma, St. Louis, MO, USA) and subsequently stained at 37 °C for 20 min with […] PI solution (Sigma, St. Louis, MO, USA). Stained cells were analyzed in the above-mentioned Partec CyFlow Space flow cytometry, and FlowJo Software (v7.6.1) was used for data processing and visualization. All experiments were performed at least four times.

NCI-H460 cells [2] = experiment: Annexin V-FITC/PI staining, apoptosis by flow cytometry; format: cell-based, human
Procedure: Apoptosis of NCI-H460 cells was measured using FITC Annexin V Apoptosis Detection Kit (BD Biosciences, San Jose, CA, USA). […] NCI-H460 cells were incubated also with 5 µM CX-4945 for 6 h, 24 h and 48 h. Subsequently, cells were washed twice with cold PBS and resuspended in binding buffer (1X) at a final concentration of 1 × 10^6 cells/mL. Finally, 5 µL of FITC Annexin V and PI were added, and cell suspensions were incubated for 15 min at room temperature in the dark. Flow cytometric analysis of stained cells was performed as previously described. All experiments were performed at least two times.

[3] = test system: mRNA levels of CK2 subunits; experiment: Quantitative real-time PCR of CK2 subunit transcripts; format: cell-based, human; details: normalised to GAPDH and HMBS
Procedure: Three replicates per condition were used. […] Louis, MO, USA) for RNA isolation (AllPrep DNA/RNA/miRNA Universal Kit, Qiagen, Valencia, CA, USA), according to the manufacturer protocol. All RNA samples were checked by Nanodrop spectrophotometer to measure concentration (ng/μL) and OD relation (260/280 nm). […] Complementary (c)DNAs were obtained from 500 ng of total RNAs, using the Transcriptor First Strand cDNA Synthesis Kit package (Roche, Mannheim, Germany), following manufacturer instructions. […] We amplified two genes for normalization of GAPDH (glyceraldehyde-3-phosphate dehydrogenase) and HMBS (hydroxymethyl-bilane synthase), and the transcripts encoding for CK2 subunits. All the oligonucleotides were synthetized in the Synthesis Department at CIGB (Table S1). Runs were carried out in the LightCycler® 480II equipment (Roche, Mannheim, Germany) in a 96-well format and SYBR Green Probe II mode with a standard program with 45 cycles. Fold changes for transcripts in each treatment were calculated with respect to time-matched control groups after normalization with GAPDH and HMBS genes (v2.0.13, Qiagen GbmH, Munich, Germany), using Ct values and reaction efficiencies per amplicon calculated in […]11.3). Statistical differences are reported in this program, with a p-value-associated with a significance for p < 0.05.

other solid tumor cells = test system: other solid tumor cells; design: method as in PMID 35155265; details: read-out: IC50 mean value, antiproliferative effect; cited from earlier work
A549 = A549 NSCLC cell line; cited from earlier work
Source text: In this work, we evaluated for the first time the molecular events supporting CK2 inhibition by CIGB-300 in an LCLC in vitro model such as NCI-H460 cells.

NCI-H125 = NCI-H125 NSCLC cell line; cited from earlier work
NCI-H460 cells [4] = experiment: Antiproliferative assay, crystal violet staining; format: cell-based; details: Homo sapiens, 48 h incubation, CalcuSyn, mean, n = 4, read-out: IC50, antiproliferative effect
Procedure: NCI-H460 was originally obtained from the American Type Culture Collection (ATCC, Manassas, VA, USA). The cell line was cultured in Dulbecco’s modified Eagle’s medium (DMEM) (Gibco, Waltham, MA, USA) supplemented with 10% (v/v) fetal bovine serum (FBS, Invitrogen, Carlsbad, CA, USA) and 50 µg/mL gentamicin (Sigma, St. Louis, MO, USA). Cells were maintained at 37 °C and 5% CO2.
Antiproliferative effect was determined using crystal violet staining. Cells were seeded in flat-bottom 96-well plates (6000 cells/mL), and 24 h later, serial dilutions 1:2 ranging from 200 to 12.5 µM of CIGB-300 and serial dilutions 1:2 ranging from 50 to 3.12 µM of CX-4945 were added, respectively. After 48 h of incubation, the medium was removed from each well and crystal violet (1%) (Sigma, St. Louis, MO, USA) was added and incubated for 5 min at room temperature. After dye removal, wells were washed with water. Absorbance was measured in a CLARIOstar microplate reader (BMG LABTECH, Ortenberg, Germany), and half-inhibitory concentration (IC50) values were estimated using CalcuSyn software (v2.1) (Biosoft, Cambridge, UK).

[5] = NCI-H460, 5 µM, 6 h, 24 h and 48 h

SMILES: CSCC[C@@H]1NC(=O)[C@H](Cc2c[nH]c3ccccc23)NC(=O)[C@@H](NC(=O)CCNC(=O)[C@H](CCC(N)=O)NC(=O)[C@@H]2CCCN2C(=O)[C@@H]2CCCN2C(=O)[C@H](CCCNC(=N)N)NC(=O)[C@H](CCCNC(=N)N)NC(=O)[C@H](CCCNC(=N)N)NC(=O)[C@H](CCC(N)=O)NC(=O)[C@H](CCCNC(=N)N)NC(=O)[C@H](CCCNC(=N)N)NC(=O)[C@H](CCCCN)NC(=O)[C@H](CCCCN)NC(=O)[C@H](CCCNC(=N)N)NC(=O)CN)CSSC[C@@H](C(=O)O)NC(=O)[C@H]([C@@H](C)O)NC(=O)CNC(=O)[C@H](CC(C)C)NC(=O)[C@H](Cc2c[nH]cn2)NC(=O)[C@H](CCCNC(=N)N)NC(=O)[C@@H]2CCCN2C(=O)[C@H](CO)NC1=O [CIGB-300] (H-GRKKRRQRRRPPQ[βAla]CWMSPRHLGTC-OH; disulfide 15-25; N-terminus and C-terminus assumed)
- interaction with PTEN in pull-down fraction (PTEN): did not interact
- interaction with CK2α in pull-down fraction (CK2α): mainly interacted
- interaction with CK2α′ in pull-down fraction (CK2α′): mainly interacted
- effect on c-Myc protein expression (c-Myc; NCI-H460, 30 µM, 0.5 h to 48 h): decreased c-Myc protein expression throughout all incubation times
- effect on p-RPS6 (S235/236) (p-RPS6 (S235/236)): potent inhibition
- regulatory subunit (β) of CK2 in pull-down fraction (CK2β): only minor levels
- interaction with RPS6 in pull-down fraction (RPS6): evident interaction
- perturbation of cells accumulated in the G0/G1 and S phases of the cell cycle (NCI-H460 cells [1]; NCI-H460, 30 µM, S phase at 6 h, G0/G1 at 24 h and 48 h): 10–15%
- apoptotic peak (NCI-H460 cells [2]; NCI-H460, 30 µM, at 6 h): ~50%
- up-regulation of mRNA levels of CK2 subunits ([3]; NCI-H460, 30 µM, earlier times (0.5 h, 3 h, 6 h)): no more than 1.5 fold
- IC50 (other solid tumor cells): 60 to 300 µM
- IC50 (A549): 171 µM
- IC50 (NCI-H125): 60 µM

SMILES: O=C(O)c1ccc2c(c1)nc(Nc1cccc(Cl)c1)c1ccncc12 [CX-4945, reference compound]
- effect on c-Myc protein expression (c-Myc; NCI-H460, 5 µM, 6 h to 48 h): induced c-Myc up-regulation
- cell cycle modulation versus untreated cells (NCI-H460 cells [1]; [5]): modified the amount of the cell population in all phases of the cell cycle
- changes in the double-positive region of the panel (NCI-H460 cells [2]; [5]): did not induce any remarkable changes
- IC50 (NCI-H460 cells [4]): 5 ± 2.1 µM
- up-regulation of mRNA levels of CK2 subunits ([3]; NCI-H460, 5 µM, longer incubation times (3 h to 24 h)): no more than 1.5 fold
